Reference: PubChem BioAssay (NCI)
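All cell lines were grown in 96-well plates and treated with compound for 48 hours. Abbreviation: GI50, concentration required for 50% inhibition of growth. TGI denotes the concentration required for complete inhibition of growth.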

What was measured:
Assay in all cases: NCI tumour cell line growth inhibition, 48 h
IGROV1 ovarian = system: IGROV1 ovarian
HCC-2998 colon = system: HCC-2998 colon
ACHN renal = system: ACHN renal
BT-549 breast = system: BT-549 breast
UO-31 renal = system: UO-31 renal
NCI-H23 lung = system: NCI-H23 lung
EKVX NSCLC = system: EKVX NSCLC
T-47D breast = system: T-47D breast
SK-MEL-2 melanoma = system: SK-MEL-2 melanoma
KM12 colon = system: KM12 colon
SF-268 CNS = system: SF-268 CNS
M14 melanoma = system: M14 melanoma
A498 renal = system: A498 renal
K-562 leukemia = system: K-562 leukemia
HOP-62 NSCLC = system: HOP-62 NSCLC
SR leukemia = system: SR leukemia
HL-60(TB) leukemia = system: HL-60(TB) leukemia
NCI-H226 lung = system: NCI-H226 lung
PC-3 prostate = system: PC-3 prostate
SW-620 colon = system: SW-620 colon
OVCAR-8 ovarian = system: OVCAR-8 ovarian
SNB-19 CNS = system: SNB-19 CNS
OVCAR-3 ovarian = system: OVCAR-3 ovarian
TK-10 renal = system: TK-10 renal
HS 578T breast = system: HS 578T breast
MDA-MB-435 = system: MDA-MB-435
HT29 colon = system: HT29 colon
LOX IMVI melanoma = system: LOX IMVI melanoma
COLO 205 colon = system: COLO 205 colon
NCI/ADR-RES ovarian = system: NCI/ADR-RES ovarian
SK-MEL-5 melanoma = system: SK-MEL-5 melanoma
A549 NSCLC = system: A549 NSCLC
SN12C renal = system: SN12C renal
SF-295 CNS = system: SF-295 CNS
SK-OV-3 ovarian = system: SK-OV-3 ovarian
HOP-92 NSCLC = system: HOP-92 NSCLC
HCT-15 colon = system: HCT-15 colon
HCT-116 colon = system: HCT-116 colon
CAKI-1 renal = system: CAKI-1 renal
786-0 renal = system: 786-0 renal
UACC-257 melanoma = system: UACC-257 melanoma
SK-MEL-28 melanoma = system: SK-MEL-28 melanoma
UACC-62 melanoma = system: UACC-62 melanoma
MCF7 breast = system: MCF7 breast
OVCAR-4 ovarian = system: OVCAR-4 ovarian
DU-145 prostate = system: DU-145 prostate
CCRF-CEM leukemia = system: CCRF-CEM leukemia
OVCAR-5 ovarian = system: OVCAR-5 ovarian
MALME-3M melanoma = system: MALME-3M melanoma
NCI-H460 lung = system: NCI-H460 lung
SNB-75 CNS = system: SNB-75 CNS
RPMI-8226 leukemia = system: RPMI-8226 leukemia
MDA-MB-231 breast = system: MDA-MB-231 breast
MOLT-4 leukemia = system: MOLT-4 leukemia
NCI-H522 lung = system: NCI-H522 lung
SF-539 CNS = system: SF-539 CNS

For `CN(C)CCCOc1ccc(C(=C(c2ccccc2)C2CCCC2)c2ccc(OCCCN(C)C)cc2)cc1`, the GI50 (IGROV1 ovarian) was 2.07 µM, the TGI (IGROV1 ovarian) was 4.58 µM and the GI50 (HCC-2998 colon) was 1.93 µM. It also gave a TGI (HCC-2998 colon) of 3.91 µM, a GI50 (ACHN renal) of 2.12 µM and a TGI (ACHN renal) of 4.7 µM. For the same molecule, the GI50 (BT-549 breast) was 15.3 µM, the TGI (BT-549 breast) was 30.8 µM and the GI50 (UO-31 renal) was 1.54 µM. It also gave a TGI (UO-31 renal) of 3.08 µM, a GI50 (NCI-H23 lung) of 4.95 µM and a TGI (NCI-H23 lung) of 17.5 µM. For the same molecule, the GI50 (EKVX NSCLC) was 7.43 µM, the TGI (EKVX NSCLC) was 21.3 µM and the GI50 (T-47D breast) was 9.86 µM. It also gave a TGI (T-47D breast) of 25.3 µM, a GI50 (SK-MEL-2 melanoma) of 11.6 µM and a TGI (SK-MEL-2 melanoma) of 24.1 µM. For the same molecule, the GI50 (KM12 colon) was 3.56 µM, the TGI (KM12 colon) was 13.1 µM and the GI50 (SF-268 CNS) was 2.51 µM. It also gave a TGI (SF-268 CNS) of 7.16 µM, a GI50 (M14 melanoma) of 1.85 µM and a TGI (M14 melanoma) of 3.74 µM. It also gave a GI50 (A498 renal) of 13.8 µM, a TGI (A498 renal) of 28.5 µM and a GI50 (K-562 leukemia) of 2.02 µM. For the same molecule, the TGI (K-562 leukemia) was 5.26 µM, the GI50 (HOP-62 NSCLC) was 14.6 µM and the TGI (HOP-62 NSCLC) was 32.6 µM. It also gave a GI50 (SR leukemia) of 2 µM, a TGI (SR leukemia) of 7.36 µM and a GI50 (HL-60(TB) leukemia) of 2.03 µM. For the same molecule, the TGI (HL-60(TB) leukemia) was 4.44 µM, the GI50 (NCI-H226 lung) was 2.81 µM and the TGI (NCI-H226 lung) was 11.4 µM. It also gave a GI50 (PC-3 prostate) of 3.26 µM, a TGI (PC-3 prostate) of 14.2 µM and a GI50 (SW-620 colon) of 1.58 µM. For the same molecule, the TGI (SW-620 colon) was 3.02 µM, the GI50 (OVCAR-8 ovarian) was 1.98 µM and the TGI (OVCAR-8 ovarian) was 4.87 µM. For the same molecule, the GI50 (SNB-19 CNS) was 2.15 µM, the TGI (SNB-19 CNS) was 5.67 µM and the GI50 (OVCAR-3 ovarian) was 2.16 µM. It also gave a TGI (OVCAR-3 ovarian) of 5.19 µM, a GI50 (TK-10 renal) of 14.6 µM and a TGI (TK-10 renal) of 28.9 µM. The GI50 (HS 578T breast) was 2.13 µM, the TGI (HS 578T breast) was 5.53 µM and the GI50 (MDA-MB-435) was 1.7 µM. The TGI (MDA-MB-435) was 3.09 µM, the GI50 (HT29 colon) was 1.97 µM and the TGI (HT29 colon) was 3.97 µM. For the same molecule, the GI50 (LOX IMVI melanoma) was 1.63 µM, the TGI (LOX IMVI melanoma) was 2.99 µM and the GI50 (COLO 205 colon) was 1.71 µM. For the same molecule, the TGI (COLO 205 colon) was 3.62 µM, the GI50 (NCI/ADR-RES ovarian) was 2.85 µM and the GI50 (SK-MEL-5 melanoma) was 12.1 µM. The TGI (SK-MEL-5 melanoma) was 24.5 µM, the GI50 (A549 NSCLC) was 3.47 µM and the TGI (A549 NSCLC) was 16.6 µM. For the same molecule, the GI50 (SN12C renal) was 1.64 µM, the TGI (SN12C renal) was 3.04 µM and the GI50 (SF-295 CNS) was 1.85 µM. For the same molecule, the TGI (SF-295 CNS) was 3.98 µM, the GI50 (SK-OV-3 ovarian) was 17.1 µM and the TGI (SK-OV-3 ovarian) was 33 µM. The GI50 (HOP-92 NSCLC) was 2.72 µM, the TGI (HOP-92 NSCLC) was 15.2 µM and the GI50 (HCT-15 colon) was 1.67 µM. The TGI (HCT-15 colon) was 3.22 µM, the GI50 (HCT-116 colon) was 1.89 µM and the TGI (HCT-116 colon) was 4.13 µM. The GI50 (CAKI-1 renal) was 3.62 µM, the TGI (CAKI-1 renal) was 13.6 µM and the GI50 (786-0 renal) was 2.62 µM. The TGI (786-0 renal) was 8.3 µM, the GI50 (UACC-257 melanoma) was 10.7 µM and the TGI (UACC-257 melanoma) was 24.1 µM. The GI50 (SK-MEL-28 melanoma) was 1.62 µM, the TGI (SK-MEL-28 melanoma) was 3.01 µM and the GI50 (UACC-62 melanoma) was 1.6 µM. It also gave a TGI (UACC-62 melanoma) of 2.98 µM, a GI50 (MCF7 breast) of 1.33 µM and a TGI (MCF7 breast) of 2.69 µM. It also gave a GI50 (OVCAR-4 ovarian) of 1.91 µM, a TGI (OVCAR-4 ovarian) of 4.34 µM and a GI50 (DU-145 prostate) of 4.43 µM. It also gave a TGI (DU-145 prostate) of 15.2 µM, a GI50 (CCRF-CEM leukemia) of 2.58 µM and a TGI (CCRF-CEM leukemia) of 6.85 µM. It also gave a GI50 (OVCAR-5 ovarian) of 1.85 µM, a TGI (OVCAR-5 ovarian) of 4.68 µM and a GI50 (MALME-3M melanoma) of 1.64 µM. For the same molecule, the TGI (MALME-3M melanoma) was 3.01 µM, the GI50 (NCI-H460 lung) was 1.69 µM and the TGI (NCI-H460 lung) was 3.16 µM. The GI50 (SNB-75 CNS) was 9.08 µM, the TGI (SNB-75 CNS) was 22.1 µM and the GI50 (RPMI-8226 leukemia) was 2.17 µM. The TGI (RPMI-8226 leukemia) was 5.75 µM, the GI50 (MDA-MB-231 breast) was 1.74 µM and the TGI (MDA-MB-231 breast) was 3.22 µM. The GI50 (MOLT-4 leukemia) was 2.56 µM, the TGI (MOLT-4 leukemia) was 6.34 µM and the GI50 (NCI-H522 lung) was 1.55 µM. It also gave a TGI (NCI-H522 lung) of 3.12 µM, a GI50 (SF-539 CNS) of 1.69 µM and a TGI (SF-539 CNS) of 3.06 µM.
